Laboratory results as given in patent US20260027131A1, “PRODRUGS, PRODRUG COMPOSITIONS AND RELATED METHODS” (Praesidia Biotherapeutics Inc., priority 2022, published 2026).
Read-outs that look alike come from different tables or passages of the source.

Columns and labels:
[1] = Metabolic stability in rat liver microsomes; type: in vitro ADME; conditions: rat liver microsomes, 1 μM, NADPH; Table 6, unit not given
Procedure: Rat liver microsomes were obtained from qualified vendors and metabolic stability of the test compound was determined at 1 μM. The compound was incubated at 37° C. with 0.5 mg microsome/mL in the buffer in the presence of 1 mM NADPH. Aliquots of 50 μL were taken from the reaction solution at 0, 15, 30, 45 and 60 minutes. […] All samples were analyzed in duplicates.

Rat plasma stability = type: in vitro ADME; conditions: for Rat plasma stability: Table 6, unit not given; for half-life at 5 μM: rat, plasma
Procedure: Rat and human plasma were obtained from qualified vendors. […] The assay was performed in duplicate.

[2] = Chemical stability at pH 4.5 and pH 7.4 in PBS; type: physicochemical; conditions: for Chemical Stability, pH 4.5: PBS pH 4.5, 37° C.; for Chemical Stability, pH 4.5 / Chemical Stability, pH 7.4: 5 μM, up to 240 min; for Chemical Stability, pH 7.4: PBS pH 7.4, 37° C.; for Chemical stability: Table 6, pH not stated
Procedure: The assay was performed in duplicate. […] Samples were incubated at 37° C. at 600 rpm.

[3] = Permeability study using Caco-2 cell monolayers; conditions: human, Caco-2, pH 7.4
Procedure: (§2) CaCO-2 cells were cultured, and a monolayer was developed in-house in 96 well-plates over 18 days using standard protocol. The monolayer was tested for the integrity of the cell monolayer before using.
(§3) Test compounds were added to the transwell insert (apical compartment) to determine the rate of drug transport in the apical to basolateral direction. To determine the rate of drug transport in the basolateral to apical direction, the test compound was added to the receiver plate wells (basolateral compartment). Appropriate amount of HBSS (10 mM HEPES, pH 7.4) was added in both compartments for a final volume of 200 μL. The plates were incubated at 37° C. with shaking at 150 rpm on a rotary shaker for 2 hours. At the end of the transport period, 50 μL from the apical and basolateral wells were collected and 4 volume of cold acetonitrile containing internal standards (IS: 100 nM alprazolam, 200 nM labetalol, and 2 μM ketoprofen) was added to each sample to terminate the reaction. The samples were vortexed and centrifuged at 3,800 g for 20 minutes. An aliquot of 150 μL of the supernatant was used for LC/MS/MS analysis. All samples were analyzed in duplicates. Samples were analyzed through LC/MS/MS for estimating the permeability and efflux of the compounds across Caco-2 cell monolayers.

Caco-2 cell monolayers = test: Permeability study using Caco-2 cell monolayers; conditions: 2 hours; for Permeability A-B: apical to basolateral; for Permeability B-A: basolateral to apical
Procedure: as §2, §3

[4] = Pharmacokinetic studies in rats: plasma and lung; conditions: rat, single i.v., 2 mg/kg dexamethasone equivalent
Procedure: (§1) Six to eight weeks old Sprague-Dawley rats were procured from a qualified provider. Test compounds were introduced in rats by a single intravenous administration. […] Blood samples (0.1, 0.2 or 0.5 mL) were collected with a 1 mL syringe containing anticoagulants K2EDTA. Blood samples were centrifuged to obtain plasma for analysis. […] After collection at each time point, lung samples were frozen at −75° C. Prior to analysis, a portion of lung sample was weighed and homogenized with phosphate buffer saline. […] Data analysis and pharmacokinetic parameters were generated using WinNonlin software.

[5] = Sprague-Dawley, rat, in vivo, iv, 2 mg/kg
Procedure: as §1, with “1 ml” for “1 mL”, “of brain” for “of lung”

in vitro = conditions: human, plasma
Procedure: (§4) Rat and human plasma were obtained from qualified vendors. 5 μL of 500 μM of the test article solution was added to 495 μL of pre-incubated human or rat plasma to reach a final concentration of 5 μM. The final concentration of organic solvents was not more than 0.5%. The assay was performed in duplicate. The reaction samples were incubated in a 37° C. water bath with shaking at approximately 60 rpm. 50 μL of the reaction samples were collected at 0, 30, 60, 120 and 180 minutes. The reaction was stopped by adding 300 μL of room temperature quench solution (acetonitrile containing internal standards (IS, 200 nM labetalol, 100 nM alprazolam and 2 μM ketoprofen)). The samples were vortexed for 5 minutes followed by centrifugation of the samples at 3,220 g for 30 minutes at room temperature to precipitate the protein. 100 μL of the supernatant was transferred to a new plate and diluted with 100 μL or 200 μL water according to the LC/MS signal response and peak shape. The samples were mixed well and analyzed using LC/MS/MS. The remaining percentage of parent drug versus reaction time was used to calculate the t1/2 value.

[6] = target: T1, Glucocorticoid receptor (GR) (Homo sapiens, UniProt P04150); test: TR-FRET GR competitive binding assay; conditions: 0.1 μM
T1 sequence (P04150 1-777): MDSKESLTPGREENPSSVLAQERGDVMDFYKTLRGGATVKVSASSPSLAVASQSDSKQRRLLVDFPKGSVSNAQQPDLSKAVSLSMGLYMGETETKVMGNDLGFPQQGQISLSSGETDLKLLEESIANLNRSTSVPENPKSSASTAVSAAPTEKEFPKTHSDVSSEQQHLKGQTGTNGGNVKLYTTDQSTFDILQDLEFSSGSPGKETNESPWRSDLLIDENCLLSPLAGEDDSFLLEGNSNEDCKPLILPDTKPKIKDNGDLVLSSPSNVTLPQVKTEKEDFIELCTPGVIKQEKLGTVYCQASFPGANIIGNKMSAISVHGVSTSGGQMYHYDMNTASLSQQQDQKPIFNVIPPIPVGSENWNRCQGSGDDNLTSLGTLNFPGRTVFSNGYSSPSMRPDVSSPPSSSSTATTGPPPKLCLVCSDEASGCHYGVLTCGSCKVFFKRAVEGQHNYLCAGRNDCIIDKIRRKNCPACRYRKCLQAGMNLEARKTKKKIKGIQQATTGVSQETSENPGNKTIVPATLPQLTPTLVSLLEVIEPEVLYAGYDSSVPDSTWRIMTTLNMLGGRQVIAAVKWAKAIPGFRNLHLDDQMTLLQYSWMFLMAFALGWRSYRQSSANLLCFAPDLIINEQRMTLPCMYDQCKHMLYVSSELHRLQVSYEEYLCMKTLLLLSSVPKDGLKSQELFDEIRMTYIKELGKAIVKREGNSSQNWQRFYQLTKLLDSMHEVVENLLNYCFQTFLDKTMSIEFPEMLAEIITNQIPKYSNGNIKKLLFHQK
Procedure: Glucocorticoid receptor (GR) binding of prodrugs was determined using TR-FRET GR competitive binding assay. Three-point (0.1, 1 and 10 μM) binding was evaluated for each prodrug.

Procedure for Human plasma stability: as §4

Structure (SMILES) | half-life at 5 μM (Human plasma stability) [h] | RLM [1] | Rat plasma stability (Rat plasma stability) | Chemical Stability, pH 4.5 [2] | Chemical Stability, pH 7.4 [2] | Chemical stability [2] | efflux ratio at 2 h [3] | Permeability A-B (Caco-2 cell monolayers) | Permeability B-A (Caco-2 cell monolayers) | Conc in Prodrug in lung ([4]; 15 min) | Conc of Prodrug in plasma ([4]; 15 min) | Conc in Prodrug in lung ([4]; 60 min) | Conc of Prodrug in plasma ([4]; 60 min) | Conc in Prodrug in lung ([4]; 360 min) | Conc of Prodrug in plasma ([4]; 360 min) | other results
COc1cccc(NC(=O)[C@@H](N)C(C)C)c1C(=O)OCC(=O)[C@@]1(O)[C@H](C)CC2[C@@H]3CCC4=CC(=O)C=C[C@]4(C)[C@@]3(F)[C@@H](O)C[C@@]21C.Cl (stereo partly drawn) [Compound 9] | > 4 | 24 | >240 | Yes | Yes | Yes | 279 | A-B = 0.025 × 10^−6, cm/s | B-A = 7 × 10^−6, cm/s | 992 ± 422 | 694 ± 83 | 959 ± 283 | 244 ± 13 | 433 ± 212 | 21 ± 1.5 | 
CC(C)C(C(=O)N1CCCC1C(=O)N(C)CC(C)(C)C(C)C(=O)OCC(=O)[C@@]1(O)[C@H](C)C[C@H]2[C@@H]3CCC4=CC(=O)C=C[C@]4(C)[C@@]3(F)[C@@H](O)C[C@@]21C)N(C)C (stereo partly drawn) [Compound 33] |  |  |  |  |  |  |  |  |  |  |  |  |  |  |  | Conc of Dex in plasma [5]: 18.8 ± 7.75; Conc of Prodrug in plasma [5]: 6549 ± 1537; half-life at 5 μM (Rat plasma stability): > 4 h; half-life at 5 μM (in vitro): > 4 h
CC(C)[C@H](N)C(=O)Nc1ccccc1C1(C(=O)OCC(=O)[C@@]2(O)[C@H](C)C[C@H]3[C@@H]4CCC5=CC(=O)C=C[C@]5(C)[C@@]4(F)[C@@H](O)C[C@@]32C)CC1.Cl [Compound 25] | > 4 | 38 | >240 | Yes | Yes | Yes | 170 | A-B = 0.065 × 10^−6, cm/s | B-A = 11 × 10^−6, cm/s | 3895 ± 368 | 742 ± 96 | 5827 ± 1483 | 367 ± 55 | 1425 ± 509 | 34 ± 10 | half-life at 5 μM (Rat plasma stability; read-out: Rat Plasma Stability t½): > 4 h; GR Binding Data [6]: 19%
